# Experimental data from patent US20060148104A1, “Detection of ion channel or receptor activity” (Massachusetts Institute of Technology, priority 2004, published 2006).
# pKd: −log10 of the molar value. “Also recorded” adds a separate entry of the source. Ends that are not written are not given here.
# What was measured:
# [1] = test system: TRPV3-EGFP-cc; assay: whole-cell patch clamp recordings, HEK293T cells transiently transfected with TRPV3-EGFP-cc; assay type: cell-based, Mouse; conditions: 100 μM 2APB
# Source text: (§1) Cloning of TRPV3, TRPV1 and P2X2 into the EGFP-cc and EGFP-barstar vectors. The multiple cloning site (MCS) 3′ of the EGFP-C1 vector is not affected by the heptad repeat or barstar insertion described above, i.e., the restriction sites at the 3 prime end of EGFP are identical to the original EGFP-C1 clone. This MCS was used to clone each of three different ion channel subunits in-frame with the EGFP-heptad repeat module or EGFP-barstar module that had been inserted into the EGFP-C1 vector. Mouse TRPV3 cDNA was amplified either from total mouse cDNA or from plasmids containing the appropriate subunit sequence by PCR using the following primers: […]
# (§2) Transient transfection of COS and HEK cells. COS or HEK cells were transfected using Lipofectamine 2000 (Invitrogen) according to the manufacture's protocol. In brief, 2 μg of the respective DNA plasmid were incubated for 30 min with 6 μl of Lipofectamine in 200 μl of Optimem medium (Gibco) at room temperature. Cells were incubated with the DNA-Lipofectamine complex for 3 h at 37 degrees Celsius in 500 μl Optimem medium. Afterwards the medium was replaced with DMEM containing 10% FCS. Cells were assayed for expression and activity of the engineered ion channels 24-48 h after transfection.
# (§3) Characterization of functional activity of engineered ion channel subunits. […]
# [2] = test system: TRPV3-EGFP; assay: whole-cell patch clamp recordings, HEK293T cells transiently transfected with TRPV3-EGFP; assay type: cell-based, Mouse; conditions: 100 μM 2APB
# Source text: as §1, §2, §3
# [3] = test system: EGFP-cc; assay: pull-down of EGFP-cc from cell lysate by functionalized nanoparticles, Western blot; assay type: binding; conditions: for pull-down / binding of EGFP-cc: lysate of cells expressing EGFP-cc, anti-EGFP Western blot
# Source text: Nanoparticle synthesis and conjugation. Dye-doped silica nanoparticles containing the fluorescent dye tris (2,2′-bipyridine) dichlororuthenium (II) hexahydrate) (Ru(bpy)) were synthesized following the reverse microemulsion procedure described by Tan and coworkers (35). These particles are approximately 40 nm in diameter and can be dispersed in de-ionized water. To impart biocompatibility (stability in PBS and other physiological buffers), particles were coated with bovine serum albumin (BSA) by mixing the nanoparticles in aqueous solution with an equal volume of freshly prepared BSA solution (1% weight in water). The mixture was incubated at room temperature for 1 h, after which it was brought to a standard PBS concentration by addition of an appropriate amount of concentrated PBS solution (10× PBS) and left standing overnight at room temperature. Excess BSA was then removed by repeated cycles of centrifugation (12 min at 9,500 rpm), removal of the supernatant and resuspension in PBS (a step involving bath sonication for a few minutes).
# Conjugation of the nanoparticles to the recognition domain peptide CGG-(KVSALKE)3, (SEQ ID NO: 44) which contains a three amino acid spacer (CGG) followed by three copies of the KVSALKE (SEQ ID NO: 1) heptad sequence (cc, custom synthesized by the MIT biopolymer lab) was achieved using commercial crosslinking chemistry. Amine groups on the surface of BSA-coated nanoparticles (there are 35 lysine groups accessible at the surface of each BSA molecule) were activated by transferring the nanoparticles to a solution of 10 μM or 100 μM freshly prepared MBS (an amine-to-thiol crosslinker, available from Pierce Biotechnology) in PBS. After 20 min incubation, nanoparticles were washed by centrifugation and resuspension in a conjugation buffer (PBS at pH 7 and 1 mM EDTA). Since the recognition peptide contains a cysteine (chosen for conjugation), reduction of possible disulfide bonds was performed (using TCEP reducing gel, Pierce Biotechnology) before addition to the activated nanoparticles. Conjugation was completed by adding the reduced peptide at a concentration of 10 μM or 100 μM to nanoparticles activated with MBS at the same respective concentrations. After peptide addition, nanoparticles were incubated overnight in a gently rotating tube at 4° C., after which they were washed 3 times in PBS.
# HEK 293T cells were transiently transfected with a construct encoding either EGFP or the EGFP-cc construct containing (EVSALEK)4 (SEQ ID NO: 4) fused to the N-terminus of EGFP as described in Example 6. 2×10^6 cells were lysed in 200 μl Lysis buffer (PBS, pH7.4 with 1% Triton-X100) and afterwards diluted with 800 μl PBS to obtain 1 ml of cell lysate with 0.2% Triton-X100. Pull-down experiments were performed by incubating 100 μL of nanoparticles with 900 μL of cell lysate for one hour at 4° C. (with gentle rotation). Particles were then centrifuged (12 min at 9,500 rpm) and the supernatant removed. After brief washing of the pellet with 100 μL of PBS, particles were resuspended by sonication in 50 μL of PBS and the resulting solution analyzed by Western blot using antibodies to EGFP (Covance) according to standard methods.
# [4] = test system: TRPV3-EGFP-cc; assay: pull-down of engineered ion channel subunit TRPV3-EGFP-cc from cell lysate by functionalized nanoparticles, Western blot; assay type: binding, Mouse
# Description: Nanoparticle synthesis and conjugation. These were performed as described in the previous example.
# Pull-down experiments. These were performed essentially as described in the previous example except that (i) two different ratios of peptides/nanoparticle (10 μM or 100 μM peptide) were used to test their effect on binding ability; and (ii) lysates were made from cells that expressed engineered ion channel subunits TRPV3-EGFP-cc and TRPV3-EGFP, which are described in Example 6.
# [5] = biological target: complementary peptides EIAALEK-EIAALEK-EIAALEK / KIAALKE-KIAALKE-KIAALKE; conditions: heterodimer (78); read-out: dissociation constant; cited from earlier work
# [6] = test system: COS cells; assay: FRET-based calcium sensing inside living COS cells (quantum dots + Calcium Crimson); assay type: cell-based; conditions: 405 nm laser; COS cells with internalized quantum dots and Calcium Crimson
# Description: Quantum dot nanoparticles with an absorption peak at ˜405 nm and an emission peak at ˜580 nm (“Birch Yellow, Type 2”, Evident Corp.) were internalized by COS cells that had been previously loaded with a calcium-sensitive dye with absorption ˜580 nm, emission ˜620 nm (Calcium Crimson; Invitrogen N. C-3018). Dye loading was performed according to the directions of the manufacturer, and electroporation was used to enhance nanoparticle uptake. Live cells were illuminated with a 405 nm laser and emission from the sample was collected through a narrow bandgap filter centered around 620 nm. […] Since the calcium-sensitive dye cannot be excited by the 405 nm laser, their activation is due to FRET from the nanoparticles. The image is a snapshot from a movie taken at mid-plane section of a cell via confocal microscopy.
molecule,measurement,setting,value
NCCOB(c1ccccc1)c1ccccc1 [2APB],reversibility of the 2APB effect,[1],quickly washed out
same,response of cells to application of 2APB (whole-cell current),"[1]; voltage ramp −100 mV to +100 mV, compared with TRPV3-EGFP",responded similarly
same,reversibility of the 2APB effect,[2],quickly washed out
same,response of cells to application of 2APB (whole-cell current),"[2]; voltage ramp −100 mV to +100 mV, compared with TRPV3-cc",responded similarly
NP-cc: BSA-coated Ru(bpy) dye-doped silica nanoparticles (~40 nm) conjugated to recognition peptide CGG-(KVSALKE)3 (SEQ ID NO: 44) (CGGKVSALKEKVSALKEKVSALKE; also: Cys crosslinked to BSA-coated Ru(bpy) dye-doped silica nanoparticles),dependence of amount of EGFP-cc pulled down on amount of peptide conjugated,"[3]; different amounts of CGG-(KVSALKE)3 conjugated, data not shown",proportional to the number of heptad repeat peptides conjugated to the nanoparticles
same,pull-down / binding of EGFP-cc,[3],only NP-cc can pull down EGFP-cc; also recorded: confirm the binding
same,pull-down / binding of EGFP-cc,[3]; listed as functionalized nanoparticles,strong band at the position expected for EGFP-cc
same,pull-down of EGFP-cc,[3]; nanoparticles conjugated with 10 μm peptide,did not result in detectable pull-down
same,pull-down of EGFP-cc,[3]; nanoparticles conjugated with 100 μm peptide,presence of EGFP-cc
same,binding to ion channel subunit containing the complementary target domain,"[4]; lysate of cells expressing TRPV3-EGFP-cc, anti-EGFP Western blot",confirm the binding
same,pull-down of TRPV3-EGFP-cc,[4]; nanoparticles conjugated with 10 μM peptide (lane 6),only a small amount of pull-down
EIAALEK-EIAALEK-EIAALEK (SEQ ID NO: 5) and KIAALKE-KIAALKE-KIAALKE (SEQ ID NO: 6) (chain 1 EIAALEKEIAALEKEIAALEK; chain 2 KIAALKEKIAALKEKIAALKE; Complementary peptides) [IAAL-E3/K3 coiled-coil],pKd,[5],7.15
C/C=C(/C)C(=O)O[C@H]1C(C)=C2[C@H]([C@@H]1OC(=O)CCCCCCC)[C@@](C)(OC(C)=O)C[C@H](OC(=O)CCC)[C@@]1(O)[C@H]2OC(=O)[C@@]1(C)O [thapsigargin],emission at 620 nm upon addition of compound (calcium signal by FRET),[6],flashes of light (orange dots) were detected only in the immediate vicinity of the nanoparticles
